Molecules are shown by their SMILES. Where a name gives a salt, the structure may show the parent alone.

Results on eight compounds are retold here after paper PMC8557901 (Microbiology Spectrum, 2021).

A short description of data set [1]: Cytotoxicity on HepG2 cell line (MTT). In kind it is cell-based. The following applies: human, HepG2 cells. The procedure: The evaluation of the cytotoxicity of the tested molecules on the HepG2 cell line was performed according to the method of Mosman ([42]) with slight modifications. […] Triplicate assays were performed for each sample. Each well was then examined under a microscope to detect possible precipitate formation before the medium was aspirated from the wells. An amount of 100 μl of MTT solution (0.5 mg/ml in medium without FBS) was then added to each well. […] After this time, the MTT solution was removed and DMSO (100 μl) was added to dissolve the resulting blue formazan crystals. Plates were shaken vigorously (700 rpm) for 10 min. The absorbance was measured at 570 nm with 630 nm as the reference wavelength using a Tecan Infinite F-200 microplate reader. DMSO was used as a blank and doxorubicin as a positive control. Cell viability was calculated as the percentage compared to the control (cells incubated without compound). […] CC50 values represent the mean values calculated from three independent experiments.

The subject of data set [2] is P. yoelii in HepG2-CD81 cells. The data set is described as follows: Hepatic stage of P. yoelii in HepG2-CD81 cells. The class given is cell-based. The conditions noted are these: Plasmodium yoelii; hepatic schizonts. How it is done:
Hepatocytes were seeded into collagen-coated black 96-well plates and maintained at 37°C in 5% CO2 in complete medium. […] The infected culture plates were centrifuged for 10 min at 900 × g, allowing fast parasite sedimentation, and further incubated with serial dilutions of M1. […] DMSO was used as a negative control. The number, size, and shape of the parasites were determined using a CellInsight high-content screening platform equipped with Studio HCS software (ThermoFisher Scientific). The parasite immunostaining was done using an […]70 antibody raised in mice and a secondary anti-mouse antibody coupled to Alexa Fluor 488 ([43]). […] Thirty-seven images, representing more than 95% of the total bottom surface area of a culture well in 96-well plates, were captured for analysis. The custom script used for counting and measuring parasites first required identification of the objects based on a fluorescence intensity threshold. The object identity was then further validated based on size and morphological (shape) criteria. The presence of DAPI-associated fluorescence in the selected objects allowed their final selection and the rejection of false positives. […] The parasitic size reduction was calculated on the average object area using the total surface area of each selected object (μm^2).

In data set [3] the test system is P. falciparum strain K1 in RBC. The data set is described as follows: In vitro chemosensitivity assay, blood stage P. falciparum K1 (SYBR green I). The following applies: Plasmodium falciparum, K1; erythrocytic stage, 72 h; read-out: EC50 (μM) for P. falciparum strain K1 in RBC. The class given is cell-based. The procedure:
Maintenance in continuous culture was done as described previously by Trager and Jensen ([46]). Cultures were maintained in fresh A+ human erythrocytes (EFS [French Blood Bank]) at 2.5% hematocrit in complete medium (RPMI 1640 with 25 mM HEPES, 25 mM NaHCO3, 10% A+ human serum) at 37°C under a reduced-O2 atmosphere (gas mixture of 10% O2, 5% CO2, and 85% N2). Parasitemia was maintained daily between 1% and 3%. The P. falciparum drug susceptibility test was carried out by comparing quantities of DNA in treated and control cultures of parasites in human erythrocytes according to a SYBR green I fluorescence-based method ([50]) using a 96-well fluorescence plate reader. Compounds, previously dissolved in DMSO (final concentration, less than 0.5% vol/vol), were incubated in a total assay volume of 200 μl of synchronized culture suspension (2% hematocrit and 0.4% parasitemia) for 72 h in a humidified atmosphere (85% N2, 10% O2, and 5% CO2) at 37°C in 96-well flat-bottom plates. Duplicate assays were performed for each sample. After incubation, plates were frozen at −20°C for 24 h. Then, the frozen plates were thawed for 1 h at 37°C. Fifteen microliters of each sample was transferred to 96-well flat-bottom black plates (Greiner Bio-one) already containing 15 μl of the SYBR green I lysis buffer (2× SYBR green I, 20 mM Tris base, pH 7.5, 20 mM EDTA, 0.008% [wt/vol] saponin, 0.08% [wt/vol] Triton X-100). […] Plates were incubated for 15 min at 37°C and then read on a Tecan Infinite F-200 spectrophotometer with excitation and emission wavelengths at 485 and 535 nm, respectively. […] EC50K1 values represent the mean values calculated from three independent experiments.

Data set [4] concerns P. cynomolgi liver-stage parasites in simian primary hepatocytes. The data set is described as follows: In vitro liver-stage development, P. cynomolgi in simian primary hepatocytes. The class given is cell-based, Plasmodium cynomolgi. From the text: (§1) Primary human hepatocytes were isolated from liver segments obtained from adult patients undergoing partial hepatectomy (Service de Chirurgie Digestive, Hépato-Bilio Pancréatique, Hôpital Pitié Salpêtrière, Paris, France). Primary simian hepatocytes were isolated from liver segments collected from healthy Macaca fascicularis monkeys from CEA, Fontenay aux Roses, France. All hepatocytes were obtained using collagenase perfusion as previously described ([40]). […] Primary murine hepatocytes were isolated from liver segments collected from BALB/c mice. Human and murine hepatocytes were used directly after their isolation. Cells were seeded in 96-well plates (Falcon; Becton Dickinson Labware Europe, France) coated with collagen I (BD Bioscience, USA) at a density of 80,000 cells per well. […] For human hepatocytes, the complete medium was supplemented with 2% dimethyl sulfoxide (DMSO; Sigma-Aldrich, USA) before infection to preserve their differentiation.
(§2) On the day of infection, 3 · 10^4 sporozoites of P. falciparum, P. yoelii, and P. cynomolgi were added to their respective host cell cultures (human, murine, and simian). The infected culture plates were centrifuged for 10 min at 900 × g, allowing fast parasite sedimentation, and further incubated with serial dilutions of M1. Culture medium containing the appropriate drug concentration was refreshed daily, and cells were fixed at 48 h postinfection (p.i.) for infections with P. yoelii, 6 days p.i. for P. falciparum, or 8 days p.i. for P. cynomolgi. For the in vitro sporozoite invasion experiments, P. falciparum sporozoites were preincubated with 1, 10, and 100 μM M1 for 1 h at room temperature before hepatocyte infections. Three hours later, after sporozoite penetration into hepatocytes, cultures were washed and then further incubated with or without the presence of the drug during 6 days. DMSO was used as a negative control.
(§3) The number, size, and shape of the parasites were determined using a CellInsight high-content screening platform equipped with Studio HCS software (ThermoFisher Scientific). […] Host cell and parasite nuclei were labeled with DAPI (4′,6-diamidino-2-phenylindole). […] The custom script used for counting and measuring parasites first required identification of the objects based on a fluorescence intensity threshold. The object identity was then further validated based on size and morphological (shape) criteria. The presence of DAPI-associated fluorescence in the selected objects allowed their final selection and the rejection of false positives. […] The parasitic size reduction was calculated on the average object area using the total surface area of each selected object (μm^2).

In data set [5] the test system is P. falciparum liver-stage parasites in human primary hepatocytes. In words: In vitro liver-stage development, P. falciparum in human primary hepatocytes. In kind it is cell-based, Plasmodium falciparum.
Description: as §1, §2, §3

Data set [6] concerns P. yoelii liver-stage parasites in murine primary hepatocytes. The data set is described as follows: In vitro liver-stage development, P. yoelii in murine primary hepatocytes. In kind it is cell-based, Plasmodium yoelii.
Description: P. yoelii 230-GFP-Luc sporozoites are mutant parasites expressing a green fluorescent protein (GFP)-luciferase cassette generated by the gene out marker out (GOMO) strategy ([39]).
as §1, §2, §3

For data set [7], the system named is P. yoelii (GFP-luc strain). In words: In vivo liver-stage assay in mice infected with P. yoelii sporozoites. The following applies: 50 mg/kg; blood smears days 3 and 6. Set-up: species or system BALB/c mice. The procedure:
Five mice per treatment group were used. Experimental groups were treated with 50 and 100 mg/kg of M1 intraperitoneally (i.p.). Untreated infected mice and noninfected mice (infection controls), as well as primaquine-treated (50 mg/kg) mice (control drug), were also included. The drugs were administered on days −1, 0, and +1, and mice were challenged on day zero by retroorbital injection of P. yoelii (GFP-luc strain) sporozoites (10,000 per mouse). In vivo bioluminescence imaging was performed 44 h postinfection on day 2, to assess liver-stage development. When parasites were detected in the liver, treatment was continued until day 5 and in vivo imaging was performed on days 3 and 6, to evaluate a prepatent period for the blood-stage parasites in mice after the sporozoite inoculation. In vivo imaging and blood smears were performed to monitor blood-stage development using methods described previously ([45]). This experiment was performed twice.
IVIS Spectrum (Caliper Life Science, Hanover, MD) was used to capture bioluminescence signals. Prior to analysis, the mice were injected i.p. with D-luciferin (100 mg/kg), anesthetized with isoflurane, and imaged 10 min postinjection. Images were analyzed using the Living Image 3.0 software (Caliper Life Sciences, Hanover, MD).
In order to study the in vivo efficacy of M1 without any hepatic CYP metabolism, we conducted an experiment using 1-aminobenzotriazole (ABT), a nonselective inhibitor of cytochrome P450 enzymes ([34], [35]). ABT was administered to mice i.p. 1 h before each treatment with 50 mg/kg gamhepathiopine for 3 days starting from the day before sporozoite inoculation.

Data set [8] has as its system P. falciparum sporozoites invading primary human hepatocytes. The data set is described as follows: Hepatocyte invasion by preincubated P. falciparum sporozoites. The conditions noted are these: reference compound; all concentrations tested. The procedure:
as §2, §3

For the compound `CC(C)(C)Nc1nc2cc(-c3ccc(C(=O)O)cc3)sc2c(=O)[nH]1` (as salt: hydrochloride) [Metabolite 10, 4-(2-(tert-Butylamino)-4-oxo-3,4-dihydrothieno[3,2-d]pyrimidin-6-yl)benzoic acid], the melting point (commonly the temperature, or range, at which the solid turns liquid) was greater than 300 °C.
Consider `O=C1C(O)=C([C@H]2CC[C@H](c3ccc(Cl)cc3)CC2)C(=O)c2ccccc21` [Atovaquone, reference compound], for which the CC50 (in general, the concentration giving 50% cytotoxicity) at 72 h in [1] is greater than 15.6 µM. The EC50 (in general, the concentration at which the effect is half-maximal) in data set [2] was determined as 0.003 µM; in data set [3] it was 0.001 µM.
Consider `COc1cccc2c1C(=O)c1c(O)c3c(c(O)c1C2=O)C[C@@](O)(C(=O)CO)C[C@@H]3O[C@H]1C[C@H](N)[C@H](O)[C@H](C)O1` [Doxorubicin, reference compound], for which, in data set [1], it took 0.2 µM to reach half-maximal cytotoxicity (CC50 at 72 h).
`C[C@H]1c2cccc(O)c2C(=O)C2=C(O)[C@]3(O)C(=O)C(C(N)=O)=C(O)[C@@H](N(C)C)[C@@H]3[C@@H](O)[C@@H]21` [Doxycycline, reference compound]: in data set [1], it took 20 µM to reach half-maximal cytotoxicity (CC50 at 72 h). For the same compound, in [3], the EC50 turned out to be 6 µM.
`CC(C)(C)Nc1nc2cc(-c3ccc(CO)cc3)sc2c(=O)[nH]1` [Metabolite 7, 2-(tert-Butylamino)-6-(4-(hydroxymethyl)phenyl)thieno[3,2-d]pyrimidin-4(3H)-one]: the melting point was found to be 264 °C. The CC50 at 72 h in data set [1] amounted to 25 µM. Further, in [2], the EC50 came to 1 µM. Further, in [3], the EC50 is 0.4 µM.
Compound `CC(C)(C)Nc1nc2cc(-c3ccc(C=O)cc3)sc2c(=O)[nH]1` [Metabolite 8, 4-(2-(tert-Butylamino)-4-oxo-3,4-dihydrothieno[3,2-d]pyrimidin-6-yl)benzaldehyde] returned a melting point of 296 °C. Besides, in data set [1], it took 25.3 µM to reach half-maximal cytotoxicity (CC50 at 72 h). Moreover, the EC50 in [3] amounted to 3.1 µM.
`CC(C)(C)Nc1nc2cc(-c3ccc(C(=O)O)cc3)sc2c(=O)[nH]1` [Metabolite 10, 4-(2-(tert-Butylamino)-4-oxo-3,4-dihydrothieno[3,2-d]pyrimidin-6-yl)benzoic acid] registered a CC50 at 72 h in data set [1] greater than 10 µM. Also, the EC50 in [2] and in data set [3] was greater than 10 µM each time.
In the case of `COc1cc(NC(C)CCCN)c2ncccc2c1` (stereo not shown) [Primaquine, reference compound], the EC50 in data set [4] (Plasmodium cynomolgi, Hepatocyte, P. cynomolgi in simian primary hepatocytes (SH), mean ± SEM of triplicate experiments, read-out: EC50 against liver-stage parasites) is 2720 ± 340 nM; in data set [5] (Plasmodium falciparum, Hepatocyte, P. falciparum in human primary hepatocytes (HH), mean ± SEM of triplicate experiments, read-out: EC50 against liver-stage parasites), 600 ± 60 nM; in data set [6] (Plasmodium yoelii, Hepatocyte, read-out: EC50 against liver-stage parasites), 640 ± 100 nM; in [2], 3.6 µM. Also, the “SI (selectivity index)” value was determined as 12 in data set [4] (hepatocyte CC50/EC50, P. cynomolgi (SH)); 66 in [5] (hepatocyte CC50/EC50, P. falciparum (HH)); 110 in [6] (hepatocyte CC50/EC50, P. yoelii (MH)). Also, the “Size reduction at 10 μM (%)” value came to 70% in data set [4] (parasite (schizont) size, 10 μM, P. cynomolgi (SH)) and 100% in data set [5] (parasite (schizont) size, 10 μM, P. falciparum (HH)). In data set [7], the “blood-stage parasitemia after sporozoite infection” value is on record as “remained clear of parasitemia”. Also, the “percentage of inhibition of hepatocyte invasion” value in data set [8] is given as 100%.
